Assay results published in patent US5723306A, “Monoclonal antibodies for the detection of pyrethroids and a process for their production” (Dragerwerk Aktiengesellschaft, priority 1993, dated 1998).

What was measured:
Format in all cases: binding, mouse
[1] = system: hybridoma clone MAB 3/B4-1/F8; test: competitive immunoassay (ELISA), cross reactivity with MAB 3/B4-1/F8; conditions: n.b. = not determinable
Procedure: (§1) The screening conjugates described in Section 1.2 were used for this purpose. In addition, "Maxisorp" (from the Nunc Corporation) microtiter plates were used. The immunoscreening method, i.e., an indirect, competitive immunoassay with free antibodies, is shown in the form of a schematic diagram in FIG. 7. First, each of the microtiter plate depressions was coated with 300 μL of hapten OVA conjugate (10 μg/mL in carbonate buffer) (coating). This was carded out over the course of 15-18 hours at 4° C. Then the depressions were washed 3 times with, for example, PBS Tween 20 buffer. To block the unoccupied bonding sites on the microtiter plate, about 300 μL of 0.1% OVA solution was added to each depression. This batch was incubated for 1-2 hours and then washed again as described. To verify the results, two separate screening processes were used (FIG. 7):
(§2) In this immunoassay, the hapten-OVA conjugates bound in the solid phase (Section 1.2) compete with the free antigen in the form of a solution of a mixture of pyrethroids. For the direct detection (Section 5.1), 100 μL of PBS buffer and 100 μL of cell culture supernatant (Section 4) per depression are incubated for one hour at room temperature under gentle agitation. Then a washing step is carried out with PBS Tween 20 buffer. This is followed by incubation with the peroxidase-(POD)-conjugated anti-mouse antibodies known to those skilled in the art. After the addition of enzyme substrate, the color is developed. The reaction is stopped after 30 minutes with 2N H2 SO4 and evaluated by spectrophotometry. The positive hybridoma cells, which secrete a specific antibody, give a strong color signal.
(§3) For this purpose, 100 μL of analyte solution (10 mg/L of pyrethroid substance in mixture MIX I/II in PBS buffed and 100 μL of culture supernatant (Section 4) per depression in the microtiter plate are incubated for 1 hour at room temperature.
(§4) If the cell culture supernatant contains specific antibodies with high affinity for at least one substance in the mixture in question (MIX I/II), these bind to the free hapten present in excess (pyrethrins/pyrethroids) and not to the hapten conjugate bound in the solid phase. The monoclonal antibodies bound to the hapten are then removed in the following washing step. This is followed by the incubation, known to those skilled in the art, with peroxidase-(POD)-conjugated anti-mouse antibodies and by subsequent addition of enzyme substrate and color development. After a predetermined incubation time, the microtiter plates are evaluated by spectrophotometry. Positive hybridoma cells which secrete an antibody selective for the pyrethroids in MIX I/II give a weaker color signal or no signal at all. Hybridoma cells which secrete antibodies which bind non-specifically to the hapten conjugate cannot be displaced by the excess pyrethroid and give a corresponding color signal. If no antibodies are present in the culture supernatant, there is no color reaction in either of the two cases.
(§5) Pyrethrum, pyrethroids, their derivatives, and/or their metabolites are detected with the help of the hapten screening conjugates and biotin tracers described in Section 1 and by the use of the competitive immunoassay (ELISA) described in Section 5.
(§6) In the direct-competitive test for low-molecular substances such as pyrethroids, a competition for a constant number of antibody binding sites takes place between an unmarked analyte of unknown quantity (here: pyrethroid) and a tracer (marked hapten) of known quantity. The antibody is immobilized on a solid phase. Depending on the amount of unmarked analyte in the sample, the antibody binding sites are occupied to a greater or lesser extent by tracer or analyte. The tracer is detected by a color reaction, which means that the detection signal on the solid phase is inversely proportional to the amount of analyte detected. The color development is measured by spectrophotometry at a defined wavelength. […]

[2] = system: hybridoma clone MAB 1/E2-5/B5; test: competitive immunoassay (ELISA), cross reactivity with MAB 1/E2-5/B5; conditions: n.b. = not determinable
Procedure: as §1, §2, §3, §4, §5, §6

[3] = system: isolated monoclonal antibodies (groups 3/B4-1/F8 and 1/E2-5/B5); test: competitive ELISA with the isolated monoclonal antibodies (both groups); conditions: both antibody groups
Procedure: as §1, with “This batch was incubated for 1-2 hours and then washed again as described. To verify the results, two separate screening processes were used (FIG. 7):” left out
In this immunoassay, the hapten-OVA conjugates bound in the solid phase (Section 1.2) compete with the free antigen in the form of a solution of a mixture of pyrethroids. […] The reaction is stopped after 30 minutes with 2N H2 SO4 and evaluated by spectrophotometry. […]
If the cell culture supernatant contains specific antibodies with high affinity for at least one substance in the mixture in question (MIX I/II), these bind to the free hapten present in excess (pyrethrins/pyrethroids) and not to the hapten conjugate bound in the solid phase. […] After a predetermined incubation time, the microtiter plates are evaluated by spectrophotometry. […]

Structure (SMILES)	% cross reactivity [1]	% cross reactivity [2]	cross reactivity (in words) [3]
CC1(C)C(C=C(Cl)Cl)C1C(=O)OC(C#N)c1cccc(Oc2ccccc2)c1 (stereo not shown) [cypermethrin]	n.b.		
CC(C)C(C(=O)OC(C#N)c1cccc(Oc2ccccc2)c1)c1ccc(Cl)cc1 (stereo not shown) [fenvalerat]	n.b.	n.b.	
CC1(C)[C@H](C=C(Cl)Cl)[C@H]1C(=O)OCc1c(F)c(F)c(F)c(F)c1F [fenfluthrin]	2%	13%	
CC(C)=CC1C(C(=O)O)C1(C)C (stereo not shown) [CTS, chrysanthemum acid]	n.b.	n.b.	
C=CCC1=C(C)C(OC(=O)[C@@H]2[C@@H](C=C(C)C)C2(C)C)CC1=O (stereo partly shown) [bioallethrin]	100%	104%	
CC1(C)[C@H](C(=O)O[C@H](C#N)c2cccc(Oc3ccccc3)c2)[C@@H]1C=C(Br)Br [deltamethrin]	n.b.	n.b.	
O=C(O)c1cccc(Oc2ccccc2)c1 [PBZ, 3-phenoxybenzoic acid]	n.b.	n.b.	
CC(C)=CC1C(C(=O)OCc2cccc(Oc3ccccc3)c2)C1(C)C (stereo not shown) [phenothrin]	n.b.	86%	
CC1(C)[C@H](C(=O)O)[C@@H]1C=C(Cl)Cl [cis-PMS, (1R,cis)-permethric acid]	n.b.	n.b.	little or no cross-reactivity
CC1(C)C(C=C(Cl)Cl)C1C(=O)OC(C#N)c1ccc(F)c(Oc2ccccc2)c1 (stereo not shown) [cyfluthrin]	n.b.		
CC1(C)[C@H](C=C(Cl)Cl)[C@H]1C(=O)O [trans-PMS, (1R,trans)-permethric acid]	n.b.	> 1%	little or no cross-reactivity
C=CCC1=C(C)C(OC(=O)C2C(C=C(C)C)C2(C)C)CC1=O (stereo not shown) [allethrin]	45%	100%	
CC1(C)C(C=C(Cl)Cl)C1C(=O)OCc1cccc(Oc2ccccc2)c1 (stereo not shown) [permethrin]	n.b.		
